Laboratory results reported in patent publication US20240317749A1, “THERAPEUTIC COMPOUNDS” (priority 2021, published 2024).
Converted amounts (≈) assume the structure as drawn.

Columns and labels:
[1] = tested on: P. aeruginosa ATCC 27853; test: MIC assay, CLSI broth microdilution in CAMH broth; format: cell-based, Pseudomonas aeruginosa; conditions: P. aeruginosa ATCC 278538
Experimental: (§1) MIC assays for various Gram-negative and Gram-positive strains were conducted in accordance with the CLSI guidelines for broth microdilution. A 96-well plate containing CAMH broth with 2-fold serial dilution of compounds was inoculated with log-phase bacterial at 5×10^5 CFU/mL. The final volume in each well was 100 μL. Each compound was tested in duplicate. The microtiter plates were incubated in an aerobic environment for 18 hours at 37° C. Then the bacterial growth was tested by reading the plate with a SpectraMax iD5 plate reader (Molecular Devices, Inc.) at 600 nm. The MIC was defined as the lowest compound concentration that inhibited bacteria growth.
(§2) The following Gram-negative and Gram-positive strains were used in the aerobic MIC procedure: • P. aeruginosa ATCC 27853 • A. baumannii ATCC 19606 • E. coli ATCC 25922 • E. coli W4573 • E. coli N43 • K. pneumoniae ATCC 10031 • K. pneumoniae ATCC 13883 • S. sonnei ATCC 29930 • P. mirabilis ATCC 29906 • Methicillin-susceptible S. aureus (MSSA) ATCC 19636 • Methicillin-resistant S. aureus (MRSA) ATCC 33951

[2] = tested on: Methicillin-resistant S. aureus (MRSA) ATCC 33591; test: MIC assay, CLSI broth microdilution in CAMH broth; format: cell-based, Staphylococcus aureus
Experimental: as §1, with “growth. […]” for “growth.”

[3] = tested on: Methicillin-susceptible S. aureus (MSSA) ATCC 19636; test: MIC assay, CLSI broth microdilution in CAMH broth; format: cell-based, Staphylococcus aureus
Experimental: as §1, §2

[4] = tested on: P. mirabilis ATCC 29906; test: MIC assay, CLSI broth microdilution in CAMH broth; format: cell-based, Proteus mirabilis
Experimental: as §1, §2

[5] = tested on: E. coli N43; test: MIC assay, CLSI broth microdilution in CAMH broth; format: cell-based, Escherichia coli
Experimental: as §1, §2

[6] = tested on: E. coli W4573; test: MIC assay, CLSI broth microdilution in CAMH broth; format: cell-based, Escherichia coli
Experimental: as §1, §2

[7] = tested on: E. coli ATCC 25922; test: MIC assay, CLSI broth microdilution in CAMH broth; format: cell-based, Escherichia coli
Experimental: as §1, §2

[8] = tested on: K. pneumoniae ATCC 10031; test: MIC assay, CLSI broth microdilution in CAMH broth; format: cell-based, Klebsiella pneumoniae; conditions: K. pneumonias ATCC 10031
Experimental: as §1, §2

[9] = tested on: K. pneumoniae ATCC 13883; test: MIC assay, CLSI broth microdilution in CAMH broth; format: cell-based, Klebsiella pneumoniae; conditions: K. pneumonias ATCC 13883
Experimental: as §1, §2

[10] = tested on: N. gonorrhoeae ATCC 49226; test: MIC assay for N. gonorrhoeae, broth microdilution in Todd-Hewitt (TH) broth; format: cell-based; conditions: Neisseria gonorrhoeae, ATCC49226; Antibacterial Activity against N. gonorrhoeae ATCC 49226 in TH
Excerpt: MIC assays for N. gonorrhoeae were done using the ATCC 49226 strain. The procedure guidelines recommended by the Clinical and Laboratory Standards Institute (CLSI) for the broth microdilution MIC assay were modified by substituting […]. Also, the recommended bacterial inoculum was modified to meet the high inoculum demands needed for N. gonorrhoeae growth. A 96-well plate containing TH broth with 2-fold serial dilution of compounds was inoculated with log-phase bacterial at 2.5×10^7 CFU/mL. The final volume in each well was 200 μL. Each compound was tested in duplicate. The microtiter plates were incubated in an […] environment for 24 hours at 37° C. using the candle jar technique. Then the bacterial growth was tested by reading the plate with a SpectraMax iD5 plate reader (Molecular Devices, Inc.) at 600 nm. The MIC was defined as the lowest compound concentration that inhibited bacteria growth.

Row | SMILES | Intrinsic MIC in CAMH [1] | Intrinsic MIC in CAMH [2] | Intrinsic MIC in CAMH [3] | Intrinsic MIC in CAMH [4] | Intrinsic MIC in CAMH [5] | Intrinsic MIC in CAMH [6] | Intrinsic MIC in CAMH [7] | Intrinsic MIC in CAMH [8] | Intrinsic MIC in CAMH [9] | MIC [10] [µg/mL]
1 | CC[C@H]1OC(=O)[C@H](C)[C@@H](O[C@H]2C[C@@](C)(OC)[C@@H](O)[C@H](C)O2)[C@H](C)[C@@H](O[C@@H]2O[C@H](C)C[C@H](N(C)C)[C@H]2O)[C@](C)(O)C[C@@H](C)CN(C)[C@H](C)[C@@H](O)[C@]1(C)O [AZM, azithromycin, reference compound] | 64¤ | 1¤ | 1¤ | 64¤ | 1¤ | 4¤ | 8¤ | 2¤ | 32¤ | –
2 | Nc1nc(N)c2ccc3c(ccn3Cc3ccc(Br)cc3)c2n1 [Example 2, 7-(4-bromobenzyl)-7H-pyrrolo[2,3-h]quinazoline-2,4-diamine] | >128¤ | ≤0.25¤ | ≤0.25¤ | 4¤ | ≤0.25¤ | 1¤ | 2¤ | ≤0.25¤ | 4¤ | 2 (≈ 5.43 µM)
3 | Nc1nc(N)c2ccc3c(ccn3Cc3cccc(Br)c3)c2n1 [Example 3, 7-(3-bromobenzyl)-7H-pyrrolo[2,3-h]quinazoline-2,4-diamine] | >64¤ | 2¤ | 2¤ | >64¤ | 1¤ | >64¤ | 32¤ | 4¤ | >64¤ | 0.5 (≈ 1.36 µM)
4 | Nc1nc(N)c2ccc3c(ccn3Cc3ccccc3Br)c2n1 [Example 4, 7-(2-bromobenzyl)-7H-pyrrolo[2,3-h]quinazoline-2,4-diamine] | >64¤ | ≤0.125¤ | ≤0.125¤ | >64¤ | – | 2¤ | 4¤ | <0.125¤ | 8¤ | 2 (≈ 5.43 µM)
5 | N#Cc1cccc(Cn2ccc3c4nc(N)nc(N)c4ccc32)c1 [Example 6, 3-((2,4-diamino-7H-pyrrolo[2,3-h]quinazolin-7-yl)methyl)benzonitrile] | >64¤ | 0.5¤ | 0.5¤ | >64¤ | ≤0.015¤ | 4¤ | 4¤ | ≤0.125¤ | 16¤ | 4 (≈ 12.7 µM)
6 | Nc1nc(N)c2ccc3c(ccn3Cc3ccc(C(F)(F)F)cc3)c2n1 [Example 7, 7-(4-(trifluoromethyl)benzyl)-7H-pyrrolo[2,3-h]quinazoline-2,4-diamine] | >64¤ | ≤0.25¤ | ≤0.25¤ | >64¤ | ≤0.015¤ | 2¤ | 2¤ | ≤0.125¤ | 8¤ | 2 (≈ 5.6 µM)
7 | Nc1nc(N)c2ccc3c(ccn3Cc3ccc(C(=O)c4ccccc4)cc3)c2n1 [Example 16, (4-((2,4-diamino-7H-pyrrolo[2,3-h]quinazolin-7-yl)methyl)phenyl)(phenyl)methanone] | >64¤ | ≤0.25¤ | ≤0.25¤ | >64¤ | ≤0.015¤ | 2¤ | 4¤ | ≤0.125¤ | >64¤ | 4 (≈ 10.2 µM)
8 | Nc1nc(N)c2ccc3c(ccn3Cc3ccc4ccccc4c3)c2n1 [Example 21, 7-(naphthalen-2-ylmethyl)-7H-pyrrolo[2,3-h]quinazoline-2,4-diamine] | >128¤ | 4¤ | 4¤ | >64¤ | 8¤ | >64¤ | >64¤ | 8¤ | >64¤ | 2 (≈ 5.89 µM)
9 | Nc1nc(N)c2ccc3c(ccn3C3C=CCCC3)c2n1 (centres unmarked) [Example 26, 7-(cyclohex-2-en-1-yl)-7H-pyrrolo[2,3-h]quinazoline-2,4-diamine] | >128¤ | 1¤ | 1¤ | >64¤ | <0.125¤ | 16¤ | 16¤ | 2¤ | 64¤ | 4 (≈ 14.3 µM)
10 | Nc1nc(N)c2ccc3c(ccn3CC3CCCCC3)c2n1 [Example 27, 7-(cyclohexylmethyl)-7H-pyrrolo[2,3-h]quinazoline-2,4-diamine] | >64¤ | ≤0.125¤ | ≤0.125¤ | >64¤ | – | 2¤ | 4¤ | <0.125¤ | 4¤ | 4 (≈ 13.5 µM)
11 | Cc1cc2c3nc(N)nc(N)c3ccc2n1Cc1ccc(-c2ccccc2C#N)cc1 [Example 31, 4′-((2,4-diamino-8-methyl-7H-pyrrolo[2,3-h]quinazolin-7-yl)methyl)-[1,1′-biphenyl]-2-carbonitrile] | >128¤ | 0.5¤ | 0.25¤ | >64¤ | <0.125¤ | >64¤ | >64¤ | 0.5¤ | >64¤ | 1 (≈ 2.47 µM)
12 | COc1cc(Cc2cnc(N)nc2N)cc(OC)c1OC [TMP, reference compound] | >64¤ | 0.5¤ | 0.5¤ | 1¤ | <0.125¤ | 0.5¤ | 0.5¤ | 0.25¤ | 2¤ | –
